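Each compound was tested at five concentrations against cells in 96-well plates for 48 hours. The concentration for 50% growth inhibition is given as GI50.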 The source made the active and inactive calls. No stated cut-off is given here; in the data, active = GI50 up to about 1.1 µM and inactive = higher.

Test in all cases: inhibition of tumour cell growth, NCI panel, 48 h
In assay [1] the test system is CCRF-CEM.
The test system of assay [2] is UACC-62.
Assay [3] has as its system SK-MEL-28.
Assay [4] deals with UO-31.
For assay [5], the system named is TK-10.
The test system of assay [6] is OVCAR-5.
Assay [7] has as its system SF-268.
Assay [8] concerns SK-OV-3.
Assay [9] concerns DU-145.
Assay [10] relates to CAKI-1.
Assay [11] has as its system M14.
For assay [12], the system named is MOLT-4.
Assay [13] relates to ACHN.
In assay [14] the test system is SF-539.
The test system of assay [15] is Hs-578T.
In assay [16] the test system is OVCAR-3.
The test system of assay [17] is K562.
Assay [18] relates to MDA-N.
Assay [19] has as its system OVCAR-8.
Assay [20] concerns BT-549.

For the compound `O=C(c1cccs1)N1CCc2ccccc2C1`, the GI50 in [1] was 40.4 µM (inactive); in assay [2] it was > 100 µM (inactive); in assay [3] it was > 100 µM (inactive); in assay [4], > 100 µM (inactive); in assay [5] it was > 100 µM (inactive); in [6], > 100 µM (inactive). In addition, the GI50 in assay [7], in assay [8], in assay [9], in [10], in assay [11] and in assay [12] was > 100 µM (inactive) in each case. The GI50 in [13] is > 100 µM (inactive); in assay [14], > 100 µM (inactive); in assay [15] it was 85.5 µM (inactive); in assay [16] it was > 100 µM (inactive); in assay [17] it was 39.1 µM (inactive); in [18] it was 32.2 µM (inactive).

In the case of `C/C(CC(O)(C(F)(F)F)C(F)(F)F)=N\NC(N)=S`, the GI50 in assay [1], in assay [2], in assay [3], in assay [4], in assay [5] and in [7] was > 10 µM (inactive) in each case. The GI50 in assay [8], in [9], in assay [10], in assay [11], in [12] and in assay [13] was > 10 µM (inactive) throughout. Besides, the GI50 in assay [14], in [15], in assay [16], in [17], in assay [18] and in assay [19] was > 10 µM (inactive) each time.

With `COC(=O)/C=C(\CC(=O)OC)n1nnnc1[C@@H]1C[C@H](COC(c2ccccc2)(c2ccccc2)c2ccccc2)[C@H]2OC(C)(C)O[C@H]21`, the GI50 in [1] is 22.9 µM (inactive); in assay [3] it was > 100 µM (inactive); in assay [4], > 100 µM (inactive); in assay [5] it was > 100 µM (inactive); in assay [6] it was > 100 µM (inactive); in assay [7], > 100 µM (inactive). The GI50 in [8], in [9], in assay [10], in assay [11], in [12] and in assay [13] was > 100 µM (inactive) each time. Also, the GI50 is > 100 µM (inactive) in assay [14]; 68.4 µM (inactive) in assay [15]; > 100 µM (inactive) in [16]; 65.5 µM (inactive) in [17]; > 100 µM (inactive) in [18]; > 100 µM (inactive) in assay [19].

On to `N#Cc1c(-c2ccc(Cl)cc2)cc(-c2ccc(Nc3ccnc4cc(C(F)(F)F)ccc34)cc2)nc1N`, for which the GI50 in assay [1] is 12.4 µM (inactive); in [2] it was 22.3 µM (inactive); in assay [3], 22.1 µM (inactive); in assay [4], 15.7 µM (inactive); in assay [5] it was 31.2 µM (inactive); in assay [6], 30.2 µM (inactive). In addition, the GI50 in assay [7] is 39.1 µM (inactive); in assay [8], 39.6 µM (inactive); in assay [9], 28.1 µM (inactive); in [10], 57.7 µM (inactive); in assay [20] it was 63 µM (inactive); in [11], 19.5 µM (inactive). Further, the GI50 in assay [12] is 14.6 µM (inactive); in assay [13], 17.4 µM (inactive); in [14], 18.5 µM (inactive); in assay [17] it was 14.5 µM (inactive); in [18] it was 32.8 µM (inactive); in assay [19], > 100 µM (inactive).

As for `CCc1cc2c(c3c1CCC3=O)CC1(Cc3ccc(C)cc3C1)C2` (stereo not drawn), the GI50 in assay [1] is 13.6 µM (inactive); in [2], 22.2 µM (inactive); in assay [4], 0.159 µM (active); in assay [5] it was > 100 µM (inactive); in [6], 29.4 µM (inactive); in assay [8] it was 71.3 µM (inactive). Also, the GI50 was > 100 µM (inactive) in assay [11]; 11.5 µM (inactive) in assay [12]; 27.3 µM (inactive) in assay [13]; > 100 µM (inactive) in assay [14]; 19.7 µM (inactive) in assay [15]; 37.3 µM (inactive) in [16]. Further, the GI50 in [17] was 30.5 µM (inactive); in assay [18], 38.1 µM (inactive); in [19] it was > 100 µM (inactive).

As to `S=C(NCCc1ccccn1)N/N=C/c1ccccn1`, the GI50 in assay [1] is < 0.01 µM (active); in assay [2] it was 0.0841 µM (active); in [3] it was 1.87 µM (inactive); in assay [5] it was 0.42 µM (active); in assay [6], < 0.018 µM (active); in assay [7], 0.301 µM (active). Besides, the GI50 in assay [8] was 1.12 µM (active); in [9], 1.48 µM (inactive); in assay [10], < 0.01 µM (active); in [11], 0.0131 µM (active); in assay [12] it was < 0.0108 µM (active); in [13], < 0.01 µM (active). In addition, the GI50 in [14] is 0.127 µM (active); in [16] it was < 0.01 µM (active); in assay [17], < 0.01 µM (active); in assay [18], 1.91 µM (inactive); in assay [19], 0.0489 µM (active).

As for `CSC1=N/C(=C\c2ccc(Cl)cc2)C(=O)N1CN1CCCCC1`, the GI50 is 26.5 µM (inactive) in [1]; 65.8 µM (inactive) in [2]; > 100 µM (inactive) in assay [3]; 23.6 µM (inactive) in [4]; 31.6 µM (inactive) in assay [5]; 99.1 µM (inactive) in assay [6]. In addition, the GI50 was 27.4 µM (inactive) in assay [7]; 35.1 µM (inactive) in assay [8]; 89.3 µM (inactive) in assay [9]; 79.1 µM (inactive) in assay [11]; 62.7 µM (inactive) in assay [12]; 25.4 µM (inactive) in assay [13]. Also, the GI50 in assay [15] is 20.7 µM (inactive); in [16], 34.2 µM (inactive); in assay [17], 53.7 µM (inactive); in assay [18], 56.8 µM (inactive); in assay [19], 37.1 µM (inactive).

In the case of `OC(c1cccs1)c1cc2ccccc2s1` (stereo not drawn), the GI50 in assay [1], in assay [2], in assay [3], in assay [4], in assay [5] and in assay [6] was > 10 µM (inactive) in each case. Besides, the GI50 in [7], in assay [8], in assay [9], in assay [10], in [11] and in [12] was > 10 µM (inactive) throughout. Also, the GI50 in [13], in assay [14], in assay [15], in [16], in assay [17] and in assay [18] was > 10 µM (inactive) throughout. For the same compound, the GI50 in [19] is > 10 µM (inactive).

Take `C=CCC1(C#N)C(=S)NC2=C(C(=O)CC(C)(C)C2)C1c1ccccc1` (stereo not drawn): the GI50 in assay [1] is 83.6 µM (inactive); in assay [3] it was 61.8 µM (inactive); in [4] it was 36.4 µM (inactive); in assay [6] it was > 100 µM (inactive); in assay [9], 19.2 µM (inactive); in assay [10], 74.3 µM (inactive). Also, the GI50 in assay [20] is 66.7 µM (inactive); in [11], 59.8 µM (inactive); in assay [12], 74.1 µM (inactive); in [14], 77.8 µM (inactive); in assay [17] it was 82.2 µM (inactive); in assay [18], 70.6 µM (inactive). For the same compound, in assay [19], the GI50 is 24 µM (inactive).

On to `Cc1cc2c(cc1-c1cc3c(cc1C)C(C(C)C)=C(O)C(=O)/C3=C\Nc1ccccn1)/C(=C/Nc1ccccn1)C(=O)C(O)=C2C(C)C`, for which the GI50 is 12.2 µM (inactive) in assay [1]; 65 µM (inactive) in assay [2]; 58.2 µM (inactive) in [3]; > 100 µM (inactive) in assay [5]; > 100 µM (inactive) in [6]; 30.3 µM (inactive) in assay [7]. For the same compound, the GI50 is > 100 µM (inactive) in assay [9]; 45.8 µM (inactive) in assay [10]; 87.5 µM (inactive) in assay [11]; 25.7 µM (inactive) in assay [12]; 43.3 µM (inactive) in assay [13]; 85.1 µM (inactive) in assay [14]. Moreover, the GI50 was 32 µM (inactive) in [15]; 34.3 µM (inactive) in [16]; 31.8 µM (inactive) in assay [17]; 76.7 µM (inactive) in assay [18]; 29 µM (inactive) in [19].

In the case of `COc1ccc(C2C3CCc4ccccc4C3=NN2S(=O)(=O)c2ccc(/C=C/C(=O)O)cc2)cc1` (stereo not drawn), the GI50 in [1] is 3.46 µM (inactive); in [2], 2.82 µM (inactive); in assay [4], 5.74 µM (inactive); in assay [5], 6.79 µM (inactive); in assay [6], 9.91 µM (inactive); in assay [7], 5.35 µM (inactive). The GI50 was 1.55 µM (inactive) in assay [8]; 22.1 µM (inactive) in assay [9]; 8.93 µM (inactive) in assay [10]; 10.4 µM (inactive) in assay [20]; 4.75 µM (inactive) in assay [11]; 3.61 µM (inactive) in assay [12]. Further, the GI50 in [13] was 3.21 µM (inactive); in assay [14] it was 2.3 µM (inactive); in [16], 3.99 µM (inactive); in [17] it was 2.84 µM (inactive); in assay [18], 1.42 µM (inactive); in assay [19], 11 µM (inactive).

Regarding `O=S1(=O)OCCOS(=O)(=O)C1S(=O)(=O)c1cccc2ccccc12`, the GI50 in assay [1] is > 100 µM (inactive); in assay [3], > 100 µM (inactive); in assay [4], > 100 µM (inactive); in [5], > 10 µM (inactive); in assay [6] it was > 100 µM (inactive); in assay [9] it was > 100 µM (inactive). Moreover, the GI50 in assay [10], in assay [20], in [11], in [12], in assay [13] and in [16] was > 100 µM (inactive) throughout. The GI50 is 41.4 µM (inactive) in [17], > 100 µM (inactive) in assay [18] and > 100 µM (inactive) in assay [19].

These data come from ChEMBL document CHEMBL1201862, “PubChem BioAssay data set” (2004).
